Measured values published in patent US20250186391A1, “ORAL COMPLEMENT FACTOR D INHIBITORS” (BioCryst Pharmaceuticals, Inc., priority 2019, published 2025).

biological target: Factor D (Homo sapiens (Human), UniProt P00746); test: Factor D esterolytic assay; format: biochemical; settings: Z-Lys-SBzl substrate, 100 mM HEPES, 500 mM NaCl, pH 7.5, 10% DMSO; tested a minimum of three times; read-out: Measured Ki (IC50) Value for Compounds: IC50
Method in brief: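 Buffer was 100 mM HEPES, 500 mM NaCl, pH 7.5 with 10% DMSO. Compound and Factor D were combined, then Z-Lys-SBzl (1.29 mM) was added either at once or following room-temperature incubation. Rates came from DTNB colour at 405 nm minus 690 nm over 600 s, with percent inhibition giving IC50 over at least three tests.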

Factor D, sequence (P00746 26-253): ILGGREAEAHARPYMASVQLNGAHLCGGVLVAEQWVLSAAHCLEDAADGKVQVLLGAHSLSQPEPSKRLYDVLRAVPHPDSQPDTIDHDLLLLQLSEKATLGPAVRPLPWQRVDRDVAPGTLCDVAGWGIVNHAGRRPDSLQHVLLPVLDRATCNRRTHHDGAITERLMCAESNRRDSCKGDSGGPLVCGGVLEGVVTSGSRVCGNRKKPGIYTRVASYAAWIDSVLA

Row | SMILES | IC50 [µM]
1 | CC(C)(C)OC(=O)N1CCN(Cc2cc(-c3cccc(CN)c3)cc3c(COc4ccccc4CC(=O)O)coc23)CC1 [Compound 121f, 2-(2-((5-(3-(aminomethyl)phenyl)-7-((4-(tert-butoxycarbonyl)piperazin-1-yl)methyl)benzofuran-3-yl)methoxy)phenyl)acetic acid] | < 1
2 | NCc1cccc(-c2cc(CN3CCNCC3)c3occ(COc4ccccc4CC(=O)O)c3c2)c1 [Compound 122b, 2-(2-((5-(3-(aminomethyl)phenyl)-7-(piperazin-1-ylmethyl)benzofuran-3-yl)methoxy)phenyl)acetic acid] | < 1
3 | Cc1oc2ccc(-c3cccc(CN)c3)cc2c1COc1ccccc1CC(=O)O [Compound 124f, 2-(2-((5-(3-(aminomethyl)phenyl)-2-methylbenzofuran-3-yl)methoxy)phenyl)acetic acid] | < 1
4 | CC(O)c1oc2ccc(-c3cccc(CN)c3)cc2c1COc1ccccc1CC(=O)O (centres unmarked) [Compound 125d, 2-(2-((5-(3-(aminomethyl)phenyl)-2-(1-hydroxyethyl)benzofuran-3-yl)methoxy)phenyl)acetic acid] | < 1
5 | NCc1cccc(-c2ccc3occ(COc4cccc(F)c4CC(=O)O)c3c2)c1 [Compound 126f, 2-(2-((5-(3-(aminomethyl)phenyl)benzofuran-3-yl)methoxy)-6-fluorophenyl)acetic acid] | < 1
6 | Cc1ccc(CC(=O)O)c(OCc2c(C)oc3ccc(-c4cccc(CN)c4)cc23)c1 [Compound 131c, 2-(2-((5-(3-(aminomethyl)phenyl)-2-methylbenzofuran-3-yl)methoxy)-4-methylphenyl)acetic acid] | < 1
7 | NCc1cccc(-c2cc(/C=C/C3CC3)c3occ(COc4ccccc4CC(=O)O)c3c2)c1 [Compound 132d, (E)-2-(2-((5-(3-(aminomethyl)phenyl)-7-(2-cyclopropylvinyl)benzofuran-3-yl)methoxy)phenyl)acetic acid] | < 1
8 | NCc1cccc(-c2ccc3oc(C4CC4)c(COc4ccccc4CC(=O)O)c3c2)c1 [Compound 133f, 2-(2-((5-(3-(aminomethyl)phenyl)-2-cyclopropylbenzofuran-3-yl)methoxy)phenyl)acetic acid] | < 1

Other lines, results leading:

Row | IC50 [µM] | SMILES
9 | < 1 | NCc1cccc(-c2cc3c(COc4ccccc4CC(=O)O)coc3c3ccoc23)c1 [Compound 123g, 2-(2-((5-(3-(aminomethyl)phenyl)benzo[1,2-b:3,4-b′]difuran-3-yl)methoxy)phenyl)acetic acid]
10 | < 1 | NCc1cccc(-c2cc(Cl)c3occ(COc4ccccc4CC(=O)O)c3c2)c1 [Compound 127f, 2-(2-((5-(3-(aminomethyl)phenyl)-7-chlorobenzofuran-3-yl)methoxy)phenyl)acetic acid]
11 | < 1 | CCn1cc(-c2cc(-c3cccc(CN)c3)cc3c(COc4ccccc4CC(=O)O)coc23)cn1 [Compound 128c, 2-(2-((5-(3-(aminomethyl)phenyl)-7-(1-ethyl-1H-pyrazol-4-yl)benzofuran-3-yl)methoxy)phenyl)acetic acid]
12 | < 1 | CC(C)Cn1cc(-c2cc(-c3cccc(CN)c3)cc3c(COc4ccccc4CC(=O)O)coc23)cn1 [Compound 129c, 2-(2-((5-(3-(aminomethyl)phenyl)-7-(1-isobutyl-1H-pyrazol-4-yl)benzofuran-3-yl)methoxy)phenyl)acetic acid]
13 | < 1 | CC(C)n1cc(-c2cc(-c3cccc(CN)c3)cc3c(COc4ccccc4CC(=O)O)coc23)cn1 [Compound 130c, 2-(2-((5-(3-(aminomethyl)phenyl)-7-(1-isopropyl-1H-pyrazol-4-yl)benzofuran-3-yl)methoxy)phenyl)acetic acid]
14 | < 1 | Cc1nn(C)cc1-c1cc(-c2cccc(CN)c2)cc2c(COc3ccccc3CC(=O)O)coc12 [Compound 134c, 2-(2-((5-(3-(aminomethyl)phenyl)-7-(1,3-dimethyl-1H-pyrazol-4-yl)benzofuran-3-yl)methoxy)phenyl)acetic acid]
